From PMC4850295, “Using a Genetically Encoded Sensor to Identify Inhibitors of Toxoplasma gondii Ca^2+ Signaling” (The Journal of Biological Chemistry, 2016) come the findings set out here.

Several values for one entry are separate records, joined by “and”; a condition that tells them apart may be missing. Identical values can stand only once. Like-named read-outs stand apart in the source and are kept apart here.

This assay deals with T1, GCaMP5-expressing T. gondii.
T1 construct: whole extracellular parasites expressing GCaMP5 Ca2+ sensor
Further details: species or system GCaMP5-expressing Toxoplasma gondii, extracellular; GCaMP5 fluorescence (cytosolic Ca2+) after 100 uM zaprinast in compound-pretreated extracellular parasites, background-subtracted, relative to zaprinast alone. Particulars: 100 uM zaprinast stimulation, 10 min pretreatment, mean of two replicates, 0.23 h. The method, then:
GCaMP5-expressing parasites were suspended in Ringer's solution at 4 × 10^7 parasites/ml, and 50 μl of parasites were applied to each well of a 96-well plate (Costar, catalog no. 3631). […] Parasites were then treated with 100 μM zaprinast or 0.1% DMSO as a vehicle control and incubated at 37 °C with 5% CO2 for an additional 4 min before measuring fluorescence with excitation and emission wavelengths of 485 and 525 nm, respectively, on a SpectraMax M3 (Molecular Devices). Basal fluorescence, measured from untreated parasites, was subtracted from all values, and results were expressed as -fold change from parasites treated only with zaprinast. Z′ factors were determined from (i) parasites treated with zaprinast versus untreated parasites and (ii) parasites treated with a final concentration of 1 μM Cpd2 or a vehicle control followed by zaprinast, using the formula, Z′ = 1 − 3(σp + σn)/(|μp − μn|), where σp and σn indicate S.D. values of positive and negative controls, and μp and μn indicate the means of positive and negative controls, respectively. […] We predicted that the zaprinast response measured in GCaMP5-expressing parasites could form the basis for a phenotypic screen. Such a screen would benefit from the known importance of Ca^2+ signaling in parasite biology along with the reported success rate of cell-based phenotypic assays. We designed a screen wherein extracellular GCaMP5-expressing parasites were pretreated with compounds for 10 min before stimulation with zaprinast, and parasite fluorescence was measured 4 min later. We expected that compounds that interfered with the zaprinast response would reduce fluorescence. We calculated a Z′-factor for this screen to determine its dynamic range and suitability to high throughput screening. To do so, we compared zaprinast-treated parasites to untreated parasites or those pretreated with the PKG inhibitor Compound 2 (Cpd2) ([55]). […] We obtained the compound libraries published kinase inhibitor sets PKIS1 ([57]) and PKIS2 (unpublished), from GlaxoSmithKline and applied our phenotypic screen to the 823 ATP mimetics represented in these collections (Fig. 2B and supplemental Table S1). The compounds were screened at a single 10 μM dose with two biological replicates.

As to `C[C@@H]1CC[C@H](C(=O)NC2CCCCC2)CN1c1cc(-c2ccc3c(N)n[nH]c3c2)nc(N)n1` [GSK2291363A], the “fold change in fluorescence relative to zaprinast alone” value stood at 1.384.
The same measure, in the same setting: the same measure for `CN(C)c1cc(-c2ccc3c(N)n[nH]c3c2)nc(N)n1` [GSK2219329A]: 0.9361; for `CN(C)S(=O)(=O)c1cc(-c2ccc3nccc(-c4cccc(S(N)(=O)=O)c4)c3c2)cnc1N` [GSK1669921A]: 1.101.
On the same count and under the same terms, the same measure for `Cn1cncc1C(=O)NC1CCN(c2ccnc(Nc3ccc(F)cc3)n2)C1` (centres unmarked) [GSK1379717A]: 1.089; for `N#Cc1c(NC(=O)c2ccc(F)cc2)sc2c1CCCC2` [SB-347804]: 1.012.
Same read-out and setting: the result for `Nc1nonc1-c1nc2cnccc2n1C1CCCCC1` [SB-734117] reads 1.214; that for `O=C1Nc2ccccc2C1=C1CCc2cc(O)ccc21` [GR105659X], 1.22.
Consider `NC(=O)c1cc(-c2ccccc2)cc2c(C3CCNCC3)c[nH]c12` [GSK301362A], for which the “fold change in fluorescence relative to zaprinast alone” value turned out to be 1.06.
The same measure, in the same setting: the result for `Fc1ccc(-c2cc(-c3c[nH]nc3-c3ccccn3)ccn2)cc1` [GW680975X] reads 1.061; that for `Nc1ncnc2scc(-c3ccc(NC(=O)Cc4cc(F)ccc4F)cc3)c12` [SB-731254-M], 1.242; that for `CCc1ccc(Oc2nccc(-c3c(-c4ccc(F)cc4)ncn3C3CCNCC3)n2)cc1` [SB-242719], 1.455.
Take `c1ccc(-c2ccc3c(Nc4ccc5[nH]ncc5c4)ccnc3c2)nc1` [GW440137A]: the “fold change in fluorescence relative to zaprinast alone” value came out at 1.678.
Same read-out and setting: the same measure for `COc1ccc(C[C@@H](CN)NC(=O)c2cc(Br)c(-c3ccnc4[nH]ccc34)s2)cc1` [GSK1389063A]: 0.8633; for `CCCN1CCC(Oc2cc(Nc3nc(Nc4cccc(F)c4C(N)=O)c4cc[nH]c4n3)c(OC)cc2Cl)CC1` [GSK1713088A]: 1.364; for `Fc1cccc(COc2ccc(Nc3ncnc4sc(-c5ccc[nH]5)cc34)cc2Cl)c1` [GW707818B]: 0.2741.
Same read-out and setting: the same measure for `CC1=C(C(=O)Nc2ccc3[nH]ncc3c2)C(c2ccc3ccccc3c2)CC(=O)N1` (centres unmarked) [GSK270822A]: 1.167; for `N#Cc1ccc2c(-c3ccnc(NC4CC4)n3)c(-c3ccc(F)cc3)nn2c1` [GW561436X]: 0.8796; for `O=C1Nc2ccccc2/C1=C/Nc1ccc(-n2cncn2)cc1` [GW301789X]: 1.111.
The same measure, in the same setting: the result for `O=C(NC1CCN(c2ccnc(Nc3ccc(F)cc3)n2)C1)c1cc2ccccc2s1` (centres unmarked) [GSK1379716A] reads 1.103; that for `OCCCNc1nccc(-c2c(-c3cccc(C(F)(F)F)c3)nn3cc(C(F)(F)F)ccc23)n1` [GW630813X], 1.109; that for `Fc1ccc(-c2nn3cccc(F)c3c2-c2ccncc2)cc1` [GW475620X], 0.2984.
On to `COc1ccc(Nc2nccc(N3CCC(NC(=O)Nc4cccc(OC)c4)C3)n2)cc1` (centres unmarked) [GSK1379742A], for which the “fold change in fluorescence relative to zaprinast alone” value stood at 1.221.
Take `Oc1cccc(-c2nc(-c3ccccc3)[nH]c2-c2ccncc2)c1` [SB-610251-B]: the “fold change in fluorescence relative to zaprinast alone” value is on record as 1.022.
Regarding `CSc1ccc(NC2=C(c3ccc(Cl)cc3)C(=O)NC2=O)cc1` [SB-317658], the “fold change in fluorescence relative to zaprinast alone” value is on record as 0.971.
Same read-out and setting: the same measure for `COC(=O)C(Cc1ccccc1)NC(=O)NC1CCN(c2ccnc(Nc3ccc(F)cc3)n2)C1` (centres unmarked) [GSK1379714A]: 0.7659; for `CCn1c(-c2ccncc2)nc2cnccc21` [SB-735216]: 1.246.
With `Cc1cc(-c2c(-c3ccc(F)cc3)ncn2CCCN2CCOCC2)nc(N)n1` [SB-222517], the “fold change in fluorescence relative to zaprinast alone” value was 1.044.
With `COc1cc(Nc2nccc(-c3c(-c4cccc(NC(=O)c5c(F)cccc5F)c4)nn4ccccc34)n2)cc(OC)c1OC` [GSK323521A], the “fold change in fluorescence relative to zaprinast alone” value worked out at 1.412.
As to `CS(=O)(=O)c1ccc(-c2nc3n(c2-c2ccncc2)CCC3)cc1` [SKF-105942], the “fold change in fluorescence relative to zaprinast alone” value is 0.9941.
The same measure, in the same setting: the result for `COc1cc2ncnc(Nc3ccc(OCc4ccccc4Br)c(Cl)c3)c2cc1OC` [GI261590A] reads 1.09; that for `CC(=O)N1CCN(c2ccc(Nc3nccc(-c4sc(C(C)C)nc4-c4cccc(NS(=O)(=O)c5ccccc5)c4)n3)cn2)CC1` [GSK1645872A], 0.8017.
Consider `COC(=O)Nc1nc2ccc(Oc3ccc(CC(=O)Nc4cc(C(F)(F)F)ccc4F)cc3)cc2[nH]1` [GW680903X], for which the “fold change in fluorescence relative to zaprinast alone” value was found to be 1.756.
Consider `Cc1nn2c(=O)cc(N3CCOC(C)C3)nc2n1Cc1cccc(Cl)c1Cl` (centres unmarked) [GSK2373693A], for which the “fold change in fluorescence relative to zaprinast alone” value worked out at 0.7316.
Still for that read-out and setting: the result for `C[C@@H](Oc1cc(-n2cnc3cc(-c4ccncc4)ccc32)sc1C(N)=O)c1ccccc1Cl` [GSK479719A] reads 1.296; that for `COc1cc2ncnc(Nc3ccc4nc(-c5ccccc5)[nH]c4c3)c2cc1OC` [GW282450A], 0.9024.
As for `Fc1ccc(-c2nc3n(c2-c2ccncc2)CCS3)cc1` [GI98581X], the “fold change in fluorescence relative to zaprinast alone” value (10 µM) was 0.7657 and 1.237.
In the case of `Cc1cc(Cl)cc2c1NC(=O)C2=NNc1ccc(S(N)(=O)=O)cc1` [GW279320X], the “fold change in fluorescence relative to zaprinast alone” value worked out at 1.035.
With `CN1CCN(CCCNc2nccc(-c3c(-c4ccc(F)cc4)nn4cc(C(N)=O)ccc34)n2)CC1` [GW622475X], the “fold change in fluorescence relative to zaprinast alone” value is reported as 0.5684.
On to `O=C(NCC1CC1)c1ccc(-c2cc(C(=O)NC3CC3)ccc2F)cc1` [GW810445X], for which the “fold change in fluorescence relative to zaprinast alone” value is recorded as 1.232.
With `O=C(Nc1n[nH]c2nc(-c3cccs3)c(Br)cc12)C1CCCC1` [SB-743341], the “fold change in fluorescence relative to zaprinast alone” value was 0.9376.
On to `COc1cc(N2CCN(C(C)C)CC2)ccc1Nc1nc(Nc2ccc(F)cc2C(=O)NC[C@@H](O)CO)c2cc[nH]c2n1` [GSK1392956A], for which the “fold change in fluorescence relative to zaprinast alone” value is recorded as 1.138.
The same measure, in the same setting: the same measure for `CCn1cnc2c(N)ncnc21` [GW345098X]: 1.056.
The same measure, in the same setting: the result for `NS(=O)(=O)c1ccc(N/N=C2\C(=O)Nc3ccc(Cl)cc32)cc1` [GW280670X] reads 0.9881; that for `CNc1ncnc2[nH]ncc12` [SKF-18355], 1.025.
Regarding `Fc1ccc(-c2ncn(CCCNCc3ccccc3)c2-c2ccncc2)cc1` [SB-210486], the “fold change in fluorescence relative to zaprinast alone” value is recorded as 0.7327.
On the same count and under the same terms, the result for `COc1ccc(C2=NC(c3ccc(Cl)cc3F)C(C(=O)Nc3ccc4[nH]ncc4c3)=C(C)N2)cn1` (centres unmarked) [GSK534913A] reads 1.286; that for `Cc1ccc(C)c(NC(=O)Nc2ccc(C)c(-c3ccc(C(=O)Nc4ccncc4)cc3)c2)c1` [GSK1398473A], 1.092.
Same read-out and setting: the same measure for `COc1ccc(Nc2nccc(NCCNC(=O)Nc3ccccc3F)n2)cc1` [GSK1379901A]: 0.9014; for `CS(=O)(=O)CCNCc1coc(-c2ccc3ncnc(Nc4ccc(OCc5ccccc5)cc4)c3c2)c1` [GW566221B]: 0.9966.
As to `O=C(Nc1n[nH]c2cc(-c3ccco3)ccc12)C1CC1` [SB-737447], the “fold change in fluorescence relative to zaprinast alone” value was found to be 1.13.
Still for that read-out and setting: the same measure for `CNC(=O)c1cncc(/C=C/c2ccccc2C)c1` [GW445015X]: 1.264.
Consider `CCCNc1cccc(-n2ncc3c(N/N=C/c4ccncc4)ncnc32)c1` [GW794607X], for which the “fold change in fluorescence relative to zaprinast alone” value was found to be 0.688.
The same measure, in the same setting: the same measure for `CC1(C)CC(n2cnc(-c3ccc(F)cc3)c2-c2ccnc(N)n2)CC(C)(C)N1` [SB-221466]: 1.33; for `COc1cc2ncnc(Nc3ccc(C)c(O)c3)c2cc1OC` [GW410563A]: 1.297; for `CCCC(=O)Nc1[nH]nc2ncc(-c3cccc4ccccc34)cc12` [SB-642057]: 0.9221.
For the compound `Fc1cc(Cl)ccc1Nc1ccnc2cc(I)ccc12` [GW551191X], the “fold change in fluorescence relative to zaprinast alone” value worked out at 1.044.
